Results as given in ChEMBL document CHEMBL4396891, “Recent update on anti-dengue drug discovery” (Eur J Med Chem, 2019).

Tests used:
dengue virus type 2 [1] = assay: Antiviral activity against DENV2 infected in BHK-21 assessed as reduction in viral plaque formation by crystal violet staining based assay; type: functional, organism-based
Dengue virus = assay: Antiviral activity against Dengue virus infected in human HepG2 cells assessed as viral production at 150 uM after 1 hrs by flow cytometry analysis relative to control; type: functional
dengue virus type 4 [2] = assay: Antiviral activity against DENV4 infected in BHK cells assessed as reduction in viral replication; type: functional, organism-based
dengue virus type 2 [3] = assay: Antiviral activity against DENV2 infected in BHK cells assessed as reduction in viral replication; type: functional, organism-based
dengue virus type 1 [4] = assay: Antiviral activity against DENV1 infected in BHK cells assessed as reduction in viral replication; type: functional, organism-based
dengue virus type 3 [5] = assay: Antiviral activity against DENV3 infected in BHK cells assessed as reduction in viral replication; type: functional, organism-based
Nonstructural protein 5 = Nonstructural protein 5 (Dengue virus, UniProt V5TFZ2); assay: Inhibition of recombinant N-terminal His6-tagged DENV2 NGC NS5 RNA dependent RNA polymerase; design: species or system dengue virus type 2
Sequence of Nonstructural protein 5 (V5TFZ2 whole entry): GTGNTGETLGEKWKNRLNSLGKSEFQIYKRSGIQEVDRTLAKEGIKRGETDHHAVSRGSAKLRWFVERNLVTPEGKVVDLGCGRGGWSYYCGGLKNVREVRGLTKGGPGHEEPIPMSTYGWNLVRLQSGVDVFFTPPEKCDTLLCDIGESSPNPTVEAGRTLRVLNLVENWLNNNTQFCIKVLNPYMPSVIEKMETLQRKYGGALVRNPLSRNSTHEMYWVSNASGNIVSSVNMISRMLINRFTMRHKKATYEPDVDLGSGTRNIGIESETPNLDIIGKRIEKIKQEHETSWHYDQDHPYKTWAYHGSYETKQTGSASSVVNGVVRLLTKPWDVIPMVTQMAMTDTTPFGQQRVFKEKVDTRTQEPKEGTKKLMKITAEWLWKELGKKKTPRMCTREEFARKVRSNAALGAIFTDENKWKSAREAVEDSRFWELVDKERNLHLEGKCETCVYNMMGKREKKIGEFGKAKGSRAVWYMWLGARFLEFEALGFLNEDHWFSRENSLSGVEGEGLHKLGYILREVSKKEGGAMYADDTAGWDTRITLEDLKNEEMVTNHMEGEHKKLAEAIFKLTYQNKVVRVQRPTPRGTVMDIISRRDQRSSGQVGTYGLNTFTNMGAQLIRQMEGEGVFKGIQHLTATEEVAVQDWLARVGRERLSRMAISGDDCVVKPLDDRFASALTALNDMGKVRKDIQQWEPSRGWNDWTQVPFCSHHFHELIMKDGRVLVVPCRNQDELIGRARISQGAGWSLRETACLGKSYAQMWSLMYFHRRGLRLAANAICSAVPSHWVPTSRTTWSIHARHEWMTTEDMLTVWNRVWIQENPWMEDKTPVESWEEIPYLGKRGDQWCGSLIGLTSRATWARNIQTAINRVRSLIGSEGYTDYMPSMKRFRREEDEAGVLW

dengue virus type 1 [6] = assay: Antiviral activity against DENV1 infected in human Huh7 cells assessed as reduction in viral yield after 48 hrs by MTT assay; type: functional, organism-based; settings: Huh-7, 48 h, pooled result: one value given for 4 cell lines, strains, targets or settings
dengue virus type 2 [7] = assay: Antiviral activity against DENV2 New Guinea C/PUO-218 by qRT-PCR analysis; type: functional, organism-based
dengue virus type 2 [8] = assay: Antiviral activity against DENV2 infected in human Huh7 cells assessed as reduction in virus yield by qRT-PCR analysis; type: functional, organism-based; settings: Huh-7
dengue virus type 2 [9] = assay: Antiviral activity against DENV2 infected in BHK-21 incubated for 2 hrs followed by compound washout and subsequent replating by plaque-forming assay; type: functional, organism-based; settings: BHK-21, 2 h
dengue virus type 2 [10] = assay: Antiviral activity against DENV2 […] infected in African green monkey Vero cells by qRT-PCR analysis; type: functional, organism-based
A549 = assay: Cytotoxicity against human A549 cells assessed as cell survival at 200 uM after 24 hrs by MTT assay relative to control; type: functional; settings: A549, 24 h, read-out: Activity
dengue virus type 2 [11] = assay: Antiviral activity against DENV2 16681 infected in human Huh7 cells by luciferase reporter gene assay; type: functional, organism-based; settings: Dengue virus, 16681, Huh-7
dengue virus type 2 [12] = assay: Antiviral activity against DENV2 infected in human Huh-7 cells; type: functional, organism-based
dengue virus type 2 [13] = assay: Antiviral activity against DENV2 infected in African green monkey Vero cells assessed as reduction in viral replication after 4 days by qRT-PCR analysis; type: functional, organism-based; settings: 96 h
dengue virus type 1 [14] = assay: Antiviral activity against DENV1 infected in African green monkey Vero cells assessed as reduction in viral replication after 4 days by qRT-PCR analysis; type: functional, organism-based; settings: 96 h
dengue virus type 4 [15] = assay: Antiviral activity against DENV4 infected in African green monkey Vero cells assessed as reduction in viral replication after 4 days by qRT-PCR analysis; type: functional, organism-based; settings: 96 h
dengue virus type 3 [16] = assay: Antiviral activity against DENV3 infected in African green monkey Vero cells assessed as reduction in viral replication after 4 days by qRT-PCR analysis; type: functional, organism-based; settings: 96 h
Genome polyprotein [17] = molecular target: T1, Genome polyprotein (dengue virus type 2, UniProt P29990); assay: Inhibition of His-tagged DENV2 NS2B-NS3 serine protease expressed in Escherichia coli BL21 using Boc-Gly-Arg-Arg-7-amino-4-methylcoumarin as substrate measured after 10 mins by fluorometric assay
dengue virus type 2 [18] = assay: Antiviral activity against DENV2 infected in human Huh7 cells up to 72 hrs by immunofluorescence analysis; type: functional, organism-based; settings: Huh-7, 72 h
Genome polyprotein [19] = molecular target: T1, Genome polyprotein; assay: Inhibition of His-tagged DENV2 NS2B-NS3 serine protease
Genome polyprotein [20] = molecular target: T1, Genome polyprotein; assay: Inhibition of His-tagged DENV2 NS2B-NS3 serine protease expressed in baculovirus infected sf9 cells
Genome polyprotein [21] = molecular target: T1, Genome polyprotein; assay: Inhibition of DENV2 NS2B-NS3 serine protease using Boc-GRR-AMC as substrate after 30 mins
dengue virus type 2 [22] = assay: Antiviral activity against DENV2 16681 infected in human Huh7 cells after 3 days by RT-qPCR analysis; type: functional, organism-based; settings: Dengue virus, 16681, Huh-7, 72 h
Genome polyprotein [23] = molecular target: T1, Genome polyprotein; assay: Inhibition of DENV2 NS2B-NS3 serine protease expressed in human Huh7 cells after 3 days by Phospha-Light SEAP reporter gene Assay; type: cell-based
dengue virus type 2 [24] = assay: Antiviral activity against DENV2 infected in human Huh-7 cells assessed as reduction in viral infection; type: functional, organism-based
dengue virus type 2 [25] = assay: Antiviral activity against DENV2 infected in African green monkey Vero cells assessed as reduction in virus titer after 72 hrs by naphthol blue-black dye based assay; type: functional, organism-based

Q: Which IC50 (dengue virus type 2 [1]) does the source give for `O=C(Nc1ccc([N+](=O)[O-])cc1Cl)c1cc(Cl)ccc1O` [NICLOSAMIDE] here?
A: 10 µM

Q: `C=C[C@H]1CN2CC[C@H]1C[C@H]2[C@H](O)c1ccnc2ccc(OC)cc12` [QUININE] was tested. Which Activity (Dengue virus) did it give?
A: 19%

Q: What does the source list for `O=C(NO)c1ncc(CS(=O)(=O)c2ccccc2)c(CO)c1O`?
A: IC50 (dengue virus type 4 [2]): 2.2 to 2.8 µM; EC50 (dengue virus type 2 [3]): 2.2 to 2.8 µM; EC50 (dengue virus type 1 [4]): 2.2 to 2.8 µM; EC50 (dengue virus type 3 [5]): 2.2 to 2.8 µM; IC50 (Nonstructural protein 5): 5 to 6.7 µM

Q: For `O=C1[C@H](CC[C@H](O)c2ccc(F)cc2)[C@@H](c2ccc(O)cc2)N1c1ccc(F)cc1` [EZETIMIBE], which IC50 (dengue virus type 1 [6]) is on record?
A: 13.1 µM

Q: `CC(C)OC(=O)[C@H](C)N[P@](=O)(OC[C@H]1O[C@@H](n2ccc(=O)[nH]c2=O)[C@](C)(F)[C@@H]1O)Oc1ccccc1` [SOFOSBUVIR] was tested. Which EC50 (dengue virus type 2 [7]) did it give?
A: 0.4 µM

Q: What about the EC50 (dengue virus type 2 [8]) of the same molecule?
A: 4.9 µM

Q: Which IC50 (dengue virus type 2 [9]) does the source give for `CCN(CCO)CCCC(C)Nc1ccnc2cc(Cl)ccc12` (stereo not drawn) [HYDROXYCHLOROQUINE] here?
A: 10.1 µM

Q: Which EC50 (dengue virus type 2 [10]) does the source give for `CC[C@@H]([C@H](C)O)n1ncn(-c2ccc(N3CCN(c4ccc(OC[C@@H]5CO[C@@](Cn6cncn6)(c6ccc(F)cc6F)C5)cc4)CC3)cc2)c1=O` [POSACONAZOLE] here?
A: 4.1 µM

Q: With `CC1(C)[C@@H](OC(=O)CCC(=O)O)CC[C@]2(C)[C@H]3C(=O)C=C4[C@@H]5C[C@@](C)(C(=O)O)CC[C@]5(C)CC[C@@]4(C)[C@]3(C)CC[C@@H]12` [CARBENOXOLONE] as the molecule, how does the viability at 200 µM (A549) read?
A: 80%

Q: How did the EC50 (dengue virus type 2 [11]) turn out when `C/C(=C\[C@H](C)C(=O)C[C@H](O)CC1CC(=O)NC(=O)C1)[C@@H]1OC(=O)/C=C/CC/C=C/C=C\[C@@H]1C` [LACTIMIDOMYCIN] was run?
A: 0.4 µM

Q: What about the EC50 (dengue virus type 2 [12]) of the same molecule?
A: 0.4 µM

Q: How did the EC50 (dengue virus type 2 [13]) turn out when `O=C(Nc1nc2cc(O)c(O)cc2s1)c1ccccc1Sc1ccc(C(F)(F)F)cc1` was run?
A: 0.1 µM

Q: What about the EC50 (dengue virus type 1 [14]) of the same molecule?
A: 0.1 to 3 µM

Q: And the EC50 (dengue virus type 4 [15])?
A: 0.1 µM

Q: And the EC50 (dengue virus type 3 [16])?
A: 0.1 µM

Q: What about the IC50 (Genome polyprotein [17]) of the same molecule?
A: 3.6 µM

Q: How did the IC50 (dengue virus type 2 [18]) turn out when `CC(=O)O[C@H]1C[C@H](O[C@H]2[C@@H](O)C[C@H](O[C@H]3[C@@H](O)C[C@H](O[C@H]4CC[C@@]5(C)[C@H](CC[C@@H]6[C@@H]5C[C@@H](O)[C@]5(C)[C@@H](C7=CC(=O)OC7)CC[C@]65O)C4)O[C@@H]3C)O[C@@H]2C)O[C@H](C)[C@H]1O[C@@H]1O[C@H](CO)[C@@H](O)[C@H](O)[C@H]1O` [LANATOSIDE C] was run?
A: 0.19 µM

Q: `COC(=O)c1[nH]c2ccc(Cl)cc2c1C(=O)c1cc(OC)c(O)c(OC)c1` was tested. Which IC50 (Genome polyprotein [19]) did it give?
A: 4.7 µM

Q: What about the IC50 (Genome polyprotein [20]) of the same molecule?
A: 6.7 µM

Q: What about the IC50 (Genome polyprotein [21]) of the same molecule?
A: 4.7 µM

Q: What about the EC50 (dengue virus type 2 [22]) of the same molecule?
A: 4.6 µM

Q: What about the IC50 (Genome polyprotein [23]) of the same molecule?
A: 6.7 µM

Q: And the EC50 (dengue virus type 2 [24])?
A: 4.6 µM

Q: For `C[C@H]1c2cccc(O)c2C(=O)C2=C(O)[C@]3(O)C(=O)C(C(N)=O)=C(O)[C@@H](N(C)C)[C@@H]3[C@@H](O)[C@@H]21` [DOXYCYCLINE], which IC50 (dengue virus type 2 [25]) is on record?
A: 50 µM
